Reference: ChEMBL document CHEMBL1201862, “PubChem BioAssay data set” (2004)
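Assay format: 96-well plates, 48-hour exposure. The concentration for 50% growth inhibition is given as GI50.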 Active and inactive are the calls of the source. Rule as the data show it: active = GI50 up to about 1.1 µM and inactive = higher.

Tests used:
Experiment in all cases: inhibition of tumour cell growth, NCI panel, 48 h
[1] = test system: A498
[2] = test system: UACC-62
[3] = test system: NCI-H226
[4] = test system: RXF 631
[5] = test system: A549
[6] = test system: SR
[7] = test system: XF498
[8] = test system: KM-20L2
[9] = test system: COLO 205
[10] = test system: SF-295
[11] = test system: SNB-19
[12] = test system: OVCAR-8
[13] = test system: SNB-78
[14] = test system: OVCAR-4
[15] = test system: SW-620
[16] = test system: U-251
[17] = test system: Malme-3M
[18] = test system: DMS-273
[19] = test system: HCT-116
[20] = test system: ACHN
[21] = test system: TK-10
[22] = test system: DLD-1
[23] = test system: HCT-15
[24] = test system: SF-268
[25] = test system: RPMI-8226
[26] = test system: RXF 393
[27] = test system: K562
[28] = test system: HOP-92
[29] = test system: CAKI-1
[30] = test system: 786-0
[31] = test system: LOX IMVI
[32] = test system: NCI-H23
[33] = test system: MOLT-4
[34] = test system: NCI-H460
[35] = test system: HOP-62
[36] = test system: SN12C
[37] = test system: HCC 2998
[38] = test system: UACC-257
[39] = test system: NCI-H522
[40] = test system: OVCAR-3
[41] = test system: HT-29
[42] = test system: SK-MEL-28
[43] = test system: LXFL 529
[44] = test system: M14
[45] = test system: M19-MEL
[46] = test system: SF-539
[47] = test system: HL-60
[48] = test system: CCRF-CEM
[49] = test system: IGROV-1
[50] = test system: HOP-18
[51] = test system: KM12
[52] = test system: OVCAR-5
[53] = test system: SK-MEL-5
[54] = test system: SNB-75
[55] = test system: SK-MEL-2
[56] = test system: EKVX
[57] = test system: SK-OV-3
[58] = test system: UO-31

OCC1OC(NO)C(O)C(O)C1O (centres undefined) was tested, and the GI50 [1] was > 100 µM (inactive), the GI50 [2] was > 100 µM (inactive) and the GI50 [3] was > 100 µM (inactive). For the same compound, the GI50 [4] was > 100 µM (inactive), the GI50 [5] was > 100 µM (inactive) and the GI50 [6] was > 100 µM (inactive). For the same compound, the GI50 [7] was > 100 µM (inactive), the GI50 [8] was > 100 µM (inactive) and the GI50 [9] was > 100 µM (inactive). The GI50 [10] was > 100 µM (inactive), the GI50 [11] was > 100 µM (inactive) and the GI50 [12] was > 100 µM (inactive). The GI50 [13] was > 100 µM (inactive), the GI50 [14] was > 100 µM (inactive) and the GI50 [15] was > 100 µM (inactive). The GI50 [16] was > 100 µM (inactive), the GI50 [17] was > 100 µM (inactive) and the GI50 [18] was > 100 µM (inactive). For the same compound, the GI50 [19] was > 100 µM (inactive), the GI50 [20] was > 100 µM (inactive) and the GI50 [21] was > 100 µM (inactive). The GI50 [22] was > 100 µM (inactive), the GI50 [23] was over 100 µM and the GI50 [24] was > 100 µM (inactive). For the same compound, the GI50 [25] was > 100 µM (inactive), the GI50 [26] was > 100 µM (inactive) and the GI50 [27] was > 100 µM (inactive). The GI50 [28] was > 100 µM (inactive), the GI50 [29] was > 100 µM (inactive) and the GI50 [30] was > 100 µM (inactive). The GI50 [31] was > 100 µM (inactive), the GI50 [32] was > 100 µM (inactive) and the GI50 [33] was > 100 µM (inactive). For the same compound, the GI50 [34] was > 100 µM (inactive), the GI50 [35] was > 100 µM (inactive) and the GI50 [36] was > 100 µM (inactive). For the same compound, the GI50 [37] was > 100 µM (inactive), the GI50 [38] was > 100 µM (inactive) and the GI50 [39] was > 100 µM (inactive). For the same compound, the GI50 [40] was > 100 µM (inactive), the GI50 [41] was > 100 µM (inactive) and the GI50 [42] was > 100 µM (inactive). For the same compound, the GI50 [43] was > 100 µM (inactive), the GI50 [44] was > 100 µM (inactive) and the GI50 [45] was > 100 µM (inactive). The GI50 [46] was > 100 µM (inactive), the GI50 [47] was > 100 µM (inactive) and the GI50 [48] was > 100 µM (inactive). For the same compound, the GI50 [49] was > 100 µM (inactive), the GI50 [50] was > 100 µM (inactive) and the GI50 [51] was > 100 µM (inactive). The GI50 [52] was > 100 µM (inactive) and the GI50 [53] was > 100 µM (inactive).
With Cn1c(=O)c2c3oc(=O)cc(O)c3c(=O)n3c4ccccc4n(c1=O)c23 the GI50 [1] was 23.9 µM (inactive), the GI50 [2] was 35 µM (inactive) and the GI50 [4] was 46.6 µM (inactive). For the same compound, the GI50 [5] was 45.7 µM (inactive), the GI50 [6] was 20.4 µM (inactive) and the GI50 [7] was 23.8 µM (inactive). The GI50 [9] was 27.9 µM (inactive), the GI50 [10] was > 100 µM (inactive) and the GI50 [54] was 32.2 µM (inactive). The GI50 [11] was > 100 µM (inactive), the GI50 [12] was 40.9 µM (inactive) and the GI50 [13] was 37 µM (inactive). For the same compound, the GI50 [14] was 36.5 µM (inactive), the GI50 [55] was 23.4 µM (inactive) and the GI50 [15] was 40.5 µM (inactive). For the same compound, the GI50 [16] was 41.4 µM (inactive), the GI50 [17] was 33.1 µM (inactive) and the GI50 [18] was 31.5 µM (inactive). The GI50 [19] was 32.8 µM (inactive), the GI50 [20] was 38 µM (inactive) and the GI50 [21] was > 100 µM (inactive). The GI50 [22] was 35.8 µM (inactive), the GI50 [23] was 27.8 µM and the GI50 [24] was 47.6 µM (inactive). The GI50 [25] was 24 µM (inactive), the GI50 [26] was 38.8 µM (inactive) and the GI50 [27] was 20.3 µM (inactive). The GI50 [28] was 33.2 µM (inactive), the GI50 [29] was 32.3 µM (inactive) and the GI50 [30] was 33.3 µM (inactive). For the same compound, the GI50 [31] was 15.8 µM (inactive), the GI50 [32] was 35.6 µM (inactive) and the GI50 [56] was 57.3 µM (inactive). The GI50 [33] was 33.3 µM (inactive), the GI50 [34] was 37.2 µM (inactive) and the GI50 [35] was > 100 µM (inactive). The GI50 [36] was 34 µM (inactive), the GI50 [37] was 42.6 µM (inactive) and the GI50 [38] was 26.1 µM (inactive). The GI50 [40] was 24.6 µM (inactive), the GI50 [41] was 39.7 µM (inactive) and the GI50 [43] was 34.8 µM (inactive). For the same compound, the GI50 [44] was 43.3 µM (inactive), the GI50 [57] was > 100 µM (inactive) and the GI50 [45] was 38.9 µM (inactive). For the same compound, the GI50 [46] was 47.6 µM (inactive), the GI50 [47] was 21.1 µM (inactive) and the GI50 [48] was 29.2 µM (inactive). For the same compound, the GI50 [58] was 28.8 µM (inactive), the GI50 [49] was 44.2 µM (inactive) and the GI50 [50] was 36.5 µM (inactive). For the same compound, the GI50 [51] was 35.6 µM (inactive), the GI50 [52] was 52.5 µM (inactive) and the GI50 [53] was 28 µM (inactive).
For O=[N+]([O-])C1C2C=CC(C2)[C@H]1c1ccccc1Cl (some centres undefined), the GI50 [1] was > 89.9 µM (inactive), the GI50 [2] was 27.5 µM (inactive) and the GI50 [3] was 15.8 µM (inactive). For the same compound, the GI50 [4] was 76.2 µM (inactive), the GI50 [5] was > 84.5 µM (inactive) and the GI50 [6] was 47.9 µM (inactive). The GI50 [7] was > 77.1 µM (inactive), the GI50 [8] was > 100 µM (inactive) and the GI50 [9] was > 100 µM (inactive). The GI50 [10] was > 100 µM (inactive), the GI50 [54] was 20.5 µM (inactive) and the GI50 [11] was > 100 µM (inactive). For the same compound, the GI50 [12] was > 100 µM (inactive), the GI50 [13] was > 100 µM (inactive) and the GI50 [14] was > 10 µM (inactive). The GI50 [55] was > 77.8 µM (inactive), the GI50 [15] was > 100 µM (inactive) and the GI50 [16] was > 87.9 µM (inactive). For the same compound, the GI50 [17] was 99.1 µM (inactive), the GI50 [18] was > 100 µM (inactive) and the GI50 [19] was > 89.9 µM (inactive). For the same compound, the GI50 [20] was > 83.6 µM (inactive), the GI50 [21] was > 100 µM (inactive) and the GI50 [22] was 83.6 µM (inactive). The GI50 [23] was over 96.6 µM, the GI50 [24] was > 100 µM (inactive) and the GI50 [25] was > 69.8 µM (inactive). The GI50 [26] was 45.8 µM (inactive), the GI50 [27] was 59.4 µM (inactive) and the GI50 [28] was 24 µM (inactive). The GI50 [29] was > 10 µM (inactive), the GI50 [30] was > 100 µM (inactive) and the GI50 [31] was > 100 µM (inactive). For the same compound, the GI50 [32] was 63.4 µM (inactive), the GI50 [56] was > 100 µM (inactive) and the GI50 [33] was 57 µM (inactive). For the same compound, the GI50 [34] was > 100 µM (inactive), the GI50 [35] was > 10 µM (inactive) and the GI50 [36] was > 100 µM (inactive). For the same compound, the GI50 [37] was > 100 µM (inactive), the GI50 [38] was 67 µM (inactive) and the GI50 [39] was 23.8 µM (inactive). For the same compound, the GI50 [40] was 22 µM (inactive), the GI50 [41] was 99.8 µM (inactive) and the GI50 [42] was > 68.7 µM (inactive). For the same compound, the GI50 [43] was 75 µM (inactive), the GI50 [44] was > 100 µM (inactive) and the GI50 [57] was > 31.6 µM (inactive). The GI50 [46] was > 100 µM (inactive), the GI50 [47] was 29.9 µM (inactive) and the GI50 [48] was 87.5 µM (inactive). For the same compound, the GI50 [58] was > 54 µM (inactive), the GI50 [49] was > 31.6 µM (inactive) and the GI50 [50] was > 100 µM (inactive). The GI50 [51] was > 100 µM (inactive), the GI50 [52] was 16.5 µM (inactive) and the GI50 [53] was 53.5 µM (inactive).
